Laboratory results: the supplement of paper PMC4862054

How the values were obtained:
Settings in all cases: incubation time: 72 h
BT-549 [1] = test: normalised viability (% of control), CellTiter-Blue; higher = more viable cells (about 100 = DMSO control)
Procedure, shortened: (§1)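 Breast cancer cell lines were treated for 72 h in 384-well format and measured by CellTiter-Blue fluorescence at 560/590 nm. Results were normalised per plate to vehicle (100) and a positive kill control (0). The entry is normalised viability at a single listed concentration of the series.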

CAL-120 [2] = test: as above
Procedure, shortened: as §1

CAL-148 = test: as above
Procedure, shortened: as §1

CAL-85-1 [3] = test: as above
Procedure, shortened: as §1

HCC1599 [4] = test: as above
Procedure, shortened: as §1

HCC1937 [5] = test: as above
Procedure, shortened: as §1

HDQ-P1 [6] = test: as above
Procedure, shortened: as §1

MDA-MB-231 [7] = test: as above
Procedure, shortened: as §1

MDA-MB-468 [8] = test: as above
Procedure, shortened: as §1

MFM-223 [9] = test: as above
Procedure, shortened: as §1

BT-474 = test: drug sensitivity score (DSS), CellTiter-Glo (DSS (AUC-based score)); higher = stronger drug effect (viability inhibition or cytotoxicity); extreme values may be limits of the assay
Procedure, shortened: (§2)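 Breast cancer cell lines were seeded in 20 µl suspension into 384-well plates already holding compound and incubated for 72 h. Each compound was tested at 5 concentrations in 10-fold steps across its own 10,000-fold range. Plates were normalised to 0.1 % DMSO and a positive kill control after CellTox Green and then CellTiter-Glo readings. The area under the fitted dose-response curve served as the basis for the drug sensitivity score.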

BT-549 [10] = test: as above
Procedure, shortened: as §2

CAL-120 [11] = test: as above
Procedure, shortened: as §2

CAL-51 = test: as above
Procedure, shortened: as §2

CAL-85-1 [12] = test: as above
Procedure, shortened: as §2

DU-4475 = test: as above
Procedure, shortened: as §2

HCC1143 = test: as above
Procedure, shortened: as §2

HCC1599 [13] = test: as above
Procedure, shortened: as §2

HCC1937 [14] = test: as above
Procedure, shortened: as §2

HDQ-P1 [15] = test: as above
Procedure, shortened: as §2

Hs578T = test: as above
Procedure, shortened: as §2

MCF-10A = test: as above
Procedure, shortened: as §2

MDA-MB-231 [16] = test: as above
Procedure, shortened: as §2

MDA-MB-453 = test: as above
Procedure, shortened: as §2

MDA-MB-468 [17] = test: as above
Procedure, shortened: as §2

MFM-223 [18] = test: as above
Procedure, shortened: as §2

SK-BR-3 = test: as above
Procedure, shortened: as §2

| Structure (SMILES) | normalised viability (BT-549 [1]; 100 nM) [%] | normalised viability (CAL-120 [2]; 100 nM) [%] | normalised viability (CAL-148; 10 nM) [%] | normalised viability (CAL-85-1 [3]; 10 nM) [%] | normalised viability (HCC1599 [4]; 100 nM) [%] | normalised viability (HCC1937 [5]; 100 nM) [%] | normalised viability (HDQ-P1 [6]; 10 nM) [%] | normalised viability (MDA-MB-231 [7]; 100 nM) [%] | normalised viability (MDA-MB-468 [8]; 100 nM) [%] | normalised viability (MFM-223 [9]; 100 nM) [%] | drug sensitivity score (BT-474) | drug sensitivity score (BT-549 [10]) | drug sensitivity score (CAL-120 [11]) | drug sensitivity score (CAL-51) | drug sensitivity score (CAL-85-1 [12]) | drug sensitivity score (DU-4475) | drug sensitivity score (HCC1143) | drug sensitivity score (HCC1599 [13]) | drug sensitivity score (HCC1937 [14]) | drug sensitivity score (HDQ-P1 [15]) | drug sensitivity score (Hs578T) | drug sensitivity score (MCF-10A) | drug sensitivity score (MDA-MB-231 [16]) | drug sensitivity score (MDA-MB-453) | drug sensitivity score (MDA-MB-468 [17]) | drug sensitivity score (MFM-223 [18]) | drug sensitivity score (SK-BR-3) | normalised viability (BT-549 [1]; 10 nM) [%] | normalised viability (CAL-120 [2]; 10 nM) [%] | normalised viability (CAL-148; 1 nM) [%] | normalised viability (CAL-85-1 [3]; 1 nM) [%] | normalised viability (HCC1599 [4]; 10 nM) [%] | normalised viability (HCC1937 [5]; 10 nM) [%] | normalised viability (HDQ-P1 [6]; 1 nM) [%] | normalised viability (MDA-MB-231 [7]; 10 nM) [%] | normalised viability (MDA-MB-468 [8]; 10 nM) [%] | normalised viability (MFM-223 [9]; 10 nM) [%] |
| --- | --- | --- | --- | --- | --- | --- | --- | --- | --- | --- | --- | --- | --- | --- | --- | --- | --- | --- | --- | --- | --- | --- | --- | --- | --- | --- | --- | --- | --- | --- | --- | --- | --- | --- | --- | --- | --- |
| O=C(c1cc(Cc2n[nH]c(=O)c3ccccc23)ccc1F)N1CCN(C(=O)C2CC2)CC1 [Olaparib] | 102 | 76.2 | 83.3 | 88.1 | 114 | 77.9 | 99.4 | 76.5 | 99.8 | 103 | 0 | 1.44 | 1.26 | 10.1 | 0 | 0 | 0 | 0 | 0 | 0 | 0 | 0 | 0 | 0 | 2.57 | 0 | 0 | – | – | – | – | – | – | – | – | – | – |
| C[C@]12C=CC(=O)C=C1CC[C@@H]1[C@@H]2C(=O)C[C@@]2(C)[C@H]1CC[C@]2(O)C(=O)CO [Prednisone] | 99.2 | 78.2 | 98.2 | 109 | 98.5 | 100 | 104 | 100 | 99.2 | 92.3 | 0 | 0 | 0.925 | 0 | 0 | 0 | 0 | 0 | 0 | 0 | 0 | 0 | 0 | 0 | 0 | 0 | 0 | – | – | – | – | – | – | – | – | – | – |
| CO[C@H]1C[C@@H]2CC[C@@H](C)[C@@](O)(O2)C(=O)C(=O)N2CCCC[C@H]2C(=O)O[C@H]([C@H](C)C[C@@H]2CC[C@@H](O)[C@H](OC)C2)CC(=O)[C@H](C)/C=C(\C)[C@@H](O)[C@@H](OC)C(=O)[C@H](C)C[C@H](C)/C=C/C=C/C=C/1C [Sirolimus] | – | – | – | – | – | – | – | – | – | – | 2.79 | 9.21 | 6 | 7.01 | 8.85 | 1.94 | 5.31 | 0 | 3.34 | 2.98 | 7.08 | 0 | 0 | 6.86 | 12.2 | 5.41 | 5.69 | 53 | 54.5 | 74.8 | 68.9 | 73.8 | 61.5 | 76.7 | 67.7 | 65.4 | 49 |
| CN1CCN(c2nc(C3=C(c4c[nH]c5ccccc45)C(=O)NC3=O)c3ccccc3n2)CC1 [Sotrastaurin] | 86.4 | 122 | 116 | 104 | 95 | 96.3 | 89.3 | 99.4 | 96.3 | 97.3 | 0 | 0 | 0 | 0 | 0 | 1.72 | 0 | 0 | 0 | 0.186 | 0 | 0 | 0 | 0 | 0 | 0 | 1.56 | – | – | – | – | – | – | – | – | – | – |
| CC/C(=C(\c1ccccc1)c1ccc(OCCN(C)C)cc1)c1ccccc1 [Tamoxifen] | 88.3 | 106 | 108 | 102 | 92.5 | 93.7 | 104 | 91 | 122 | 95.2 | 0 | 0 | 0.0022 | 4.03 | 0 | 0 | 0 | 0 | 1.17 | 0 | 0 | 0 | 0 | 5.28 | 0 | 1.68 | 1.07 | – | – | – | – | – | – | – | – | – | – |
| COc1cc2c(N3CCN(C(=O)Nc4ccc(OC(C)C)cc4)CC3)ncnc2cc1OCCCN1CCCCC1 [Tandutinib] | – | – | – | – | – | – | – | – | – | – | 0 | 0 | 0 | 0 | 0 | 0 | 0 | 0 | 0 | 0 | 0 | 0 | 0 | 0 | 0 | 0 | 0 | 106 | 110 | 98.1 | 104 | 101 | 98.4 | 130 | 108 | 108 | 102 |
| C[C@@H](C(=O)O)c1ccc(-c2ccccc2)c(F)c1 [Tarenflurbil] | 103 | 98.6 | 90.2 | 91.5 | 103 | 109 | 91.8 | 90.8 | 104 | 101 | 0 | 0 | 0 | 0 | 0 | 0 | 0 | 0 | 0 | 0 | 0 | 0 | 0 | 0 | 0 | 0 | 0 | – | – | – | – | – | – | – | – | – | – |
| Cn1nnc2c(C(N)=O)ncn2c1=O [Temozolomide] | 83.6 | 95.9 | 90.4 | 102 | 115 | 100 | 92.3 | 104 | 95.7 | 105 | 0 | 0 | 0 | 0 | 0 | 0 | 0 | 0 | 0 | 0 | 0 | 0 | 0 | 0 | 0 | 0 | 0 | – | – | – | – | – | – | – | – | – | – |
| CC[C@@H]1C(=O)N(C)c2cnc(Nc3ccc(C(=O)N[C@H]4CC[C@H](N5CCN(CC6CC6)CC5)CC4)cc3OC)nc2N1C(C)C [Volasertib] | – | – | – | – | – | – | – | – | – | – | 8.07 | 15.1 | 7.64 | 16.3 | 12.6 | 8.16 | 11.2 | 10.3 | 3.79 | 5.3 | 9.68 | 8.92 | 9.58 | 12 | 14.8 | 15.5 | 19.9 | 94.5 | 48.5 | 98.3 | 95.3 | 78.5 | 70.6 | 103 | 92.8 | 83.8 | 51.1 |
